These results are taken from ChEMBL document CHEMBL1811847, “Initial efforts toward the optimization of arylomycins for antibiotic activity” (2011).

≈ marks a conversion by molar mass, not a printed value.

Type in all cases: functional
The subject of assay [1] is Staphylococcus epidermidis. Description: Antibacterial activity against wild-type Staphylococcus epidermidis RP62A after 24 hrs by CLSI broth microdilution method.
Assay [2] has as its system Staphylococcus aureus. The assay is described as follows: Antibacterial activity against Staphylococcus aureus NCTC 8325 harboring lepB P29S mutant after 24 hrs by CLSI broth microdilution method. The following applies: NCTC 8325, 24 h.
The test system of assay [3] is Escherichia coli. The assay is described as follows: Antibacterial activity against Escherichia coli MG1655 harboring lepB P84L mutant after 24 hrs by CLSI broth microdilution method. The following applies: MG1655, 24 h.
Assay [4] deals with Pseudomonas aeruginosa. The assay is described as follows: Antibacterial activity against Pseudomonas aeruginosa PAO1 harboring lepB P84L mutant after 24 hrs by CLSI broth microdilution method. The following applies: PAO1, 24 h.
In assay [5] the test system is Staphylococcus epidermidis. Description: Antibacterial activity against Staphylococcus epidermidis RP62A harboring spsB S29P mutant after 24 hrs by CLSI broth microdilution method.
Assay [6] relates to Staphylococcus aureus. The assay is described as follows: Antibacterial activity against wild-type Staphylococcus aureus NCTC 8325 after 24 hrs by CLSI broth microdilution method. The following applies: NCTC 8325, 24 h.
The test system of assay [7] is Escherichia coli. The assay is described as follows: Antibacterial activity against Escherichia coli MG1655 after 24 hrs by CLSI broth microdilution method. The following applies: MG1655, 24 h.
For assay [8], the system named is Pseudomonas aeruginosa. The assay is described as follows: Antibacterial activity against wild-type Pseudomonas aeruginosa PAO1 after 24 hrs by CLSI broth microdilution method. To be noted: PAO1, 24 h.
Assay [9] relates to Staphylococcus aureus. Description: Antibacterial activity against methicillin-resistant Staphylococcus aureus isolate USA300.

With `CCCCCCCCc1ccc(C(=O)N(C)[C@H](CO)C(=O)N[C@H](C)C(=O)NCC(=O)N(C)[C@@H]2C(=O)N[C@@H](C)C(=O)N[C@H](C(=O)O)Cc3ccc(O)c(c3)-c3cc2ccc3O)cc1`, the minimal inhibitory concentration (MIC) in assay [1] is 1 µg/mL (≈ 1.16 µM); with Staphylococcus aureus [2], 8 µg/mL (≈ 9.31 µM); against Escherichia coli [3] it was 8 µg/mL (≈ 9.31 µM); against Pseudomonas aeruginosa [4], 64 µg/mL (≈ 74.5 µM); in [5], greater than 64 µg/mL; with Staphylococcus aureus [6], greater than 64 µg/mL. Besides, the MIC against Escherichia coli [7] and against Pseudomonas aeruginosa [8] was greater than 64 µg/mL each time.
In the case of `CCCCCCCCc1ccc(-c2ccc(C(=O)N(C)[C@H](CO)C(=O)N[C@H](C)C(=O)NCC(=O)N(C)[C@@H]3C(=O)N[C@@H](C)C(=O)N[C@H](C(=O)O)Cc4ccc(O)c(c4)-c4cc3ccc4O)cc2)cc1`, the MIC is 1 µg/mL (≈ 1.07 µM) in assay [1]; 8 µg/mL (≈ 8.56 µM) against Staphylococcus aureus [2]; 1 µg/mL (≈ 1.07 µM) in the assay on Escherichia coli [3]; 16 µg/mL (≈ 17.1 µM) in [5]; 16 µg/mL (≈ 17.1 µM) in the assay with Staphylococcus aureus [6]; greater than 64 µg/mL with Escherichia coli [7]. This compound yielded an MIC against Pseudomonas aeruginosa [8] greater than 64 µg/mL.
`CCCCCCCCCCCCCCCCCC(=O)N(C)[C@H](CO)C(=O)N[C@H](C)C(=O)NCC(=O)N(C)[C@@H]1C(=O)N[C@@H](C)C(=O)N[C@H](C(=O)O)Cc2ccc(O)c(c2)-c2cc1ccc2O`: the MIC against Staphylococcus aureus [6], with Escherichia coli [7] and against Pseudomonas aeruginosa [8] was greater than 64 µg/mL throughout.
For the compound `C[C@@H]1NC(=O)[C@@H](N(C)C(=O)CNC(=O)[C@@H](C)NC(=O)[C@@H](CO)N(C)C(=O)c2ccc(-c3ccccc3)cc2)c2ccc(O)c(c2)-c2cc(ccc2O)C[C@@H](C(=O)O)NC1=O`, the MIC in assay [1] was 64 µg/mL (≈ 77.8 µM); in assay [5], greater than 64 µg/mL; against Staphylococcus aureus [6], greater than 64 µg/mL; in the assay with Escherichia coli [7] it was greater than 64 µg/mL; in the assay with Pseudomonas aeruginosa [8] it was greater than 64 µg/mL.
Turning to `CCCCCCc1ccc(-c2ccc(C(=O)N(C)[C@H](CO)C(=O)N[C@H](C)C(=O)NCC(=O)N(C)[C@@H]3C(=O)N[C@@H](C)C(=O)N[C@H](C(=O)O)Cc4ccc(O)c(c4)-c4cc3ccc4O)cc2)cc1`, the MIC in [1] was 0.5 µg/mL (≈ 0.551 µM); against Staphylococcus aureus [2], 8 µg/mL (≈ 8.82 µM); in the assay with Escherichia coli [3] it was 1 µg/mL (≈ 1.1 µM); in assay [5] it was 32 µg/mL (≈ 35.3 µM); in the assay with Staphylococcus aureus [6] it was 64 µg/mL (≈ 70.6 µM); against Escherichia coli [7] it was greater than 64 µg/mL. For the same compound, the MIC in the assay on Pseudomonas aeruginosa [8] is greater than 64 µg/mL.
Regarding `CCCCc1ccc(-c2ccc(C(=O)N(C)[C@H](CO)C(=O)N[C@H](C)C(=O)NCC(=O)N(C)[C@@H]3C(=O)N[C@@H](C)C(=O)N[C@H](C(=O)O)Cc4ccc(O)c(c4)-c4cc3ccc4O)cc2)cc1`, the MIC in assay [1] is 1 µg/mL (≈ 1.14 µM); with Staphylococcus aureus [2], 16 µg/mL (≈ 18.2 µM); against Escherichia coli [3], 4 µg/mL (≈ 4.55 µM); in assay [5], greater than 64 µg/mL; against Staphylococcus aureus [6], greater than 64 µg/mL; against Escherichia coli [7] it was greater than 64 µg/mL. Also, the MIC with Pseudomonas aeruginosa [8] is greater than 64 µg/mL.
`CCCCCCCCCCCCCCCC(=O)N(C)[C@@H](CO)C(=O)NCCC(C)C(=O)NCC(=O)N(C)[C@@H]1C(=O)N[C@@H](C)C(=O)N[C@H](C(=O)O)Cc2ccc(O)c(c2)-c2cc1ccc2O` (mixture of isomers): the MIC in [1] is 8 µg/mL; in the assay on Staphylococcus aureus [2], 8 µg/mL; in assay [5], 8 µg/mL; in the assay with Staphylococcus aureus [6], greater than 64 µg/mL; against Escherichia coli [7] it was greater than 64 µg/mL; against Pseudomonas aeruginosa [8] it was greater than 64 µg/mL.
As for `CCCCCCCCCCCCCCCC(=O)N(C)[C@@H](CO)C(=O)NCC(C)C(=O)NCC(=O)N(C)[C@@H]1C(=O)N[C@@H](C)C(=O)N[C@H](C(=O)O)Cc2ccc(O)c(c2)-c2cc1ccc2O` (mixture of isomers), the MIC in assay [1] is 8 µg/mL; in the assay with Escherichia coli [3] it was 8 µg/mL; against Pseudomonas aeruginosa [4] it was 16 µg/mL; in assay [5], 16 µg/mL; in the assay on Staphylococcus aureus [6] it was greater than 64 µg/mL; with Escherichia coli [7], greater than 64 µg/mL. Further, the MIC with Pseudomonas aeruginosa [8] was greater than 64 µg/mL.
On to `CCCCCCCCCCCCCCCC(=O)N1C[C@@H](O)C[C@H]1C(=O)N[C@@H](C)C(=O)NCC(=O)N(C)[C@@H]1C(=O)N[C@@H](C)C(=O)N[C@H](C(=O)O)Cc2ccc(O)c(c2)-c2cc1ccc2O`, for which the MIC in [1] is 4 µg/mL (≈ 4.48 µM); against Staphylococcus aureus [2] it was 4 µg/mL (≈ 4.48 µM); in assay [5] it was 8 µg/mL (≈ 8.96 µM); against Staphylococcus aureus [6], greater than 64 µg/mL; against Escherichia coli [7] it was greater than 64 µg/mL; against Pseudomonas aeruginosa [8] it was greater than 64 µg/mL.
Take `CCCCCCc1ccc(C(=O)N(C)[C@H](CO)C(=O)N[C@H](C)C(=O)NCC(=O)N(C)[C@@H]2C(=O)N[C@@H](C)C(=O)N[C@H](C(=O)O)Cc3ccc(O)c(c3)-c3cc2ccc3O)cc1`: the MIC in assay [1] is 8 µg/mL (≈ 9.63 µM); with Staphylococcus aureus [2] it was 64 µg/mL (≈ 77 µM); in the assay on Escherichia coli [3], 32 µg/mL (≈ 38.5 µM); in assay [5] it was greater than 64 µg/mL; in the assay on Staphylococcus aureus [6] it was greater than 64 µg/mL; with Escherichia coli [7] it was greater than 64 µg/mL. In the assay on Pseudomonas aeruginosa [8], this compound had a minimal inhibitory concentration (MIC) greater than 64 µg/mL.
`CC(C)CCCCCCCCC(=O)N(C)[C@H](CO)C(=O)N[C@H](C)C(=O)NCC(=O)N(C)[C@@H]1C(=O)N[C@@H](C)C(=O)N[C@H](C(=O)O)Cc2ccc(O)c(c2)-c2cc1ccc2O` [ARYLOMYCIN A2] registered an MIC against Staphylococcus aureus [9] of 16 µg/mL (≈ 19.4 µM).
`CCCCCCCCCCCC(=O)N(C)[C@H](CO)C(=O)N[C@H](C)C(=O)NCC(=O)N(C)[C@@H]1C(=O)N[C@@H](C)C(=O)N[C@H](C(=O)O)Cc2ccc(O)c(c2)-c2cc1ccc2O`: the MIC (in assay [5]; against Staphylococcus aureus [6]; with Escherichia coli [7]; in the assay with Pseudomonas aeruginosa [8]) was greater than 64 µg/mL throughout.
